# Source: the supplement of paper PMC10307832
# Experiments:
# Test in all cases: relative viability (nuclei count vs DMSO), 5 days (fraction); higher = more cells survive
# Cediranib + Bortezomib = compound: COc1cc2c(Oc3ccc4[nH]c(C)cc4c3F)ncnc2cc1OCCCN1CCCC1 [Cediranib] + CC(C)C[C@H](NC(=O)[C@H](Cc1ccccc1)NC(=O)c1cnccn1)B(O)O [Bortezomib] (partner 0.002 µM)
# In short: (§1)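 Lung cancer cell lines in 1536-well plates were dosed by pin tool the day after seeding, either with one drug alone or with a fixed anchor-drug dose plus five library-drug doses (not always all listed) in √10 steps. After 5 days, cells were fixed and their nuclei stained in one step (final 0.05% Triton X-100, 1% formaldehyde, 1 ug/ml Hoechst), then counted on 4× images. Relative viability is the nuclei count in treated wells divided by that in vehicle wells. Values are medians of duplicate plates.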
# Decitabine + Pictilisib = compound: Nc1ncn([C@H]2C[C@H](O)[C@@H](CO)O2)c(=O)n1 [Decitabine] + CS(=O)(=O)N1CCN(Cc2cc3nc(-c4cccc5[nH]ncc45)nc(N4CCOCC4)c3s2)CC1 [Pictilisib] (partner 1 µM)
# In short: as §1
# Cediranib + Crizotinib = compound: COc1cc2c(Oc3ccc4[nH]c(C)cc4c3F)ncnc2cc1OCCCN1CCCC1 [Cediranib] + C[C@@H](Oc1cc(-c2cnn(C3CCNCC3)c2)cnc1N)c1c(Cl)ccc(F)c1Cl [Crizotinib] (partner 1 µM)
# In short: as §1
# Cediranib + Trametinib = compound: COc1cc2c(Oc3ccc4[nH]c(C)cc4c3F)ncnc2cc1OCCCN1CCCC1 [Cediranib] + CC(=O)Nc1cccc(-n2c(=O)n(C3CC3)c(=O)c3c(Nc4ccc(I)cc4F)n(C)c(=O)c(C)c32)c1 [Trametinib] (partner 0.02 µM)
# In short: as §1
Cell Line,relative viability (Cediranib + Bortezomib; first compound 0.04 µM),relative viability (Cediranib + Bortezomib; first compound 0.1265 µM),relative viability (Cediranib + Bortezomib; first compound 0.4 µM),relative viability (Cediranib + Bortezomib; first compound 1.265 µM),relative viability (Cediranib + Bortezomib; first compound 4 µM),relative viability (Decitabine + Pictilisib; first compound 0.1265 µM),relative viability (Decitabine + Pictilisib; first compound 0.4 µM),relative viability (Decitabine + Pictilisib; first compound 1.265 µM),relative viability (Decitabine + Pictilisib; first compound 4 µM),relative viability (Cediranib + Crizotinib; first compound 0.04 µM),relative viability (Cediranib + Crizotinib; first compound 0.1265 µM),relative viability (Cediranib + Crizotinib; first compound 0.4 µM),relative viability (Cediranib + Crizotinib; first compound 1.265 µM),relative viability (Cediranib + Crizotinib; first compound 4 µM),relative viability (Cediranib + Trametinib; first compound 0.04 µM),relative viability (Cediranib + Trametinib; first compound 0.4 µM),relative viability (Cediranib + Trametinib; first compound 1.265 µM),relative viability (Cediranib + Trametinib; first compound 4 µM),relative viability (Decitabine + Pictilisib; first compound 0.04 µM),relative viability (Cediranib + Trametinib; first compound 0.1265 µM)
PC-3 [JPC-3],0.844,0.829,0.844,0.924,0.809,0.733,0.434,0.609,0.646,1.05,1.04,1.01,1.02,0.857,0.69,0.681,0.708,0.662,–,–
HCC-44,0.825,–,0.873,0.932,0.975,0.71,0.353,0.412,0.372,0.803,–,0.774,0.825,0.935,1.2,1.1,1.05,1.07,0.537,0.907
NCI-H2405,1.05,0.475,0.982,0.894,0.983,0.453,0.562,0.406,0.298,0.849,0.82,0.792,0.823,0.825,0.647,0.562,0.636,0.614,0.457,0.941
LXF-289,1.04,0.87,0.969,0.97,0.958,0.808,0.471,0.4,0.317,0.831,0.727,0.782,0.838,0.804,0.671,0.676,0.651,0.632,0.75,–
LOU-NH91,0.409,0.475,0.517,0.513,0.488,0.478,0.517,0.518,0.495,0.739,0.767,0.713,0.727,0.653,0.841,0.796,0.751,0.786,0.518,0.808
A549,–,–,–,–,–,0.49,0.37,0.256,0.166,0.805,0.768,0.679,0.773,0.605,–,–,–,–,0.444,–
H3255,0.808,0.842,0.776,0.731,0.814,0.462,0.342,0.331,0.358,0.945,0.699,0.825,0.925,0.861,0.606,0.623,–,0.567,0.189,–
NCI-H1395,–,–,–,–,–,0.579,0.522,0.417,0.458,–,–,–,–,–,1.05,0.999,0.954,0.904,0.57,1.04
LC-2-ad,1.09,1.04,0.973,1.03,0.959,0.37,0.495,0.3,0.275,0.462,0.425,0.366,0.474,0.419,0.94,0.901,0.995,0.841,0.359,0.915
NCI-H838,0.812,0.557,0.926,0.713,1.05,0.357,0.308,0.24,0.226,0.798,0.898,0.817,0.811,0.748,0.508,0.491,0.514,0.705,0.415,0.494
Calu-6,1.03,0.977,1.05,0.968,1.03,0.685,0.468,0.334,0.243,0.844,0.849,0.81,0.786,0.602,–,–,–,–,0.76,–
NCI-H1648,–,–,–,–,–,–,–,–,–,–,–,–,–,–,0.442,0.539,0.462,0.495,–,0.499
LCLC-97TM1,0.351,–,0.643,0.769,0.578,0.166,0.0979,0.105,0.117,0.272,–,0.352,0.47,0.363,0.196,0.207,0.187,0.214,0.145,–
HCC-15,1.06,–,1,1.12,1.01,0.767,0.288,0.484,0.411,0.93,–,0.787,0.816,0.828,0.389,0.362,0.337,0.404,0.742,–
CAL-12T,0.88,–,0.931,1.07,1.12,0.499,0.332,0.339,0.301,0.855,0.639,0.661,0.638,0.62,0.443,0.319,0.248,0.341,0.299,0.362
NCI-H727,0.807,0.55,0.789,0.64,0.747,0.353,0.316,0.418,0.257,0.927,0.758,0.876,0.671,0.736,0.374,0.358,0.374,0.384,0.272,0.376
